Results taken from US6936585B2, “Corticotropin releasing factor 2 receptor agonists” (priority 2002, dated 2005).
Ends that are not written are not given here. Peptide text beside a SMILES is read from it.

Assays:
CRF2R = molecular target: T1, CRF2R (Homo sapiens, UniProt Q13324); assay: CRF2R agonist activation (EC50 / Emax), called comparative CRF binding; assay type: cell-based; conditions: for EC50: read-out: CRF2R EC50; for Emax: read-out: CRF2R Emax
T1 sequence (Q13324 1-411): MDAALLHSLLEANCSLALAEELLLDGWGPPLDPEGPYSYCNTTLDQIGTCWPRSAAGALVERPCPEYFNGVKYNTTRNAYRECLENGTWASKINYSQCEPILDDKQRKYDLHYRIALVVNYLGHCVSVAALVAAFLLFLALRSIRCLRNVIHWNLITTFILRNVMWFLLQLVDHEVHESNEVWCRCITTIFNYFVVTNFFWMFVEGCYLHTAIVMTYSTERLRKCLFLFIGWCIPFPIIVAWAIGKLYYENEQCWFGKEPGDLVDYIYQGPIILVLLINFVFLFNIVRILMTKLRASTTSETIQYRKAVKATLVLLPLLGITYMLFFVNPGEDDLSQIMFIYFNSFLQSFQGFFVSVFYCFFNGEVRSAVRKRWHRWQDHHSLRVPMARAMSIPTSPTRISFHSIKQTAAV
From the text: (§1) The pharmacological activity and selectivity of the peptides of present invention can be determined using published test procedures. See, e.g, U.S. patent application Ser. No. 09/799,978 (now issued U.S. Pat. No. 6,670,140). Because CRF2R and CRF1R are homologous proteins, it is expected that a certain proportion of agonists for CRF2R will also function as agonists of CRF1R. As discussed above, activation of CRF1R induces activation of the HPA axis since increased corticosteroid production leads to skeletal muscle atrophy. In most cases in which an increase in muscle mass or function is desired, it is not desirable to activate the HPA axis.
(§2) Cell-based assays include the steps of contacting cells which express CRF1R or CRF2R with a peptide of the present invention or control and measuring activation of the CRFR by measuring the expression or activity of components of the CRFR signal transduction pathways.
(§3) For example, after contact with a peptide of the present invention, lysates of the cells can be prepared and assayed for induction of cAMP. cAMP is induced in response to Gαs activation. Because Gαs is activated by receptors other than CRFR and because a test peptide may be exerting its effect through CRFRs or by another mechanism, two control comparisons are relevant for determining whether the peptide increases levels of cAMP via activation of a CRFR. One control compares the cAMP level of cells contacted with the peptide and the cAMP level of cells contacted with a control compound (i.e., the vehicle in which the peptide is dissolved).
(§4) In one example, cAMP induction is measured with the use of DNA constructs containing the cAMP responsive element linked to any of a variety of reporter genes can be introduced into cells expressing CRFRs. Such reporter genes include, but are not limited to, chloramphenicol acetyltransferase (CAT), luciferase, glucuronide synthetase, growth hormone, fluorescent proteins (e.g., Green Fluorescent Protein), or alkaline phosphatase. Following exposure of the cells to the peptide, the level of reporter gene expression can be quantitated to determine the peptide's ability to increase cAMP levels and thus determine the peptide's ability to activate the CRFR.
(§5) In addition to using cells expressing full length CRFRs, cells can be engineered which express CRFRs containing the ligand binding domain of the receptor coupled to, or physically modified to contain, reporter elements or to interact with signaling proteins. For example, a wild type CRFR or CRFR fragment can be fused to a G-protein resulting in activation of the fused G-protein upon agonist binding to the CRFR portion of the fusion protein. […] In addition, alternative pathways for induction of the CRE reporter could be eliminated to reduce basal levels.

CRF1R = molecular target: T2, CRF1R (Homo sapiens, UniProt P34998); assay: CRF1R agonist activation (EC50 / Emax), called comparative CRF binding; assay type: cell-based; conditions: for EC50: read-out: CRF1R EC50; for Emax: read-out: CRF1R Emax
T2 sequence (P34998 24-415): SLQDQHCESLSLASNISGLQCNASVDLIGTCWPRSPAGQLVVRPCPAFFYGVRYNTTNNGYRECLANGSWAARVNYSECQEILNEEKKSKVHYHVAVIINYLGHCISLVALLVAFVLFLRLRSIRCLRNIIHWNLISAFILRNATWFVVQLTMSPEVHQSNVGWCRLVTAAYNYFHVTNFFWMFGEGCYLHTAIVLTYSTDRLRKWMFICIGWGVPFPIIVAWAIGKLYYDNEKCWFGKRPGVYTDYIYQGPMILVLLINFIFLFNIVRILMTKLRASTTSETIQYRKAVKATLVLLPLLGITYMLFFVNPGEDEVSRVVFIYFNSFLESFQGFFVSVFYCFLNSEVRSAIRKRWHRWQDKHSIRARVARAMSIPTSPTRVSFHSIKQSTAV
From the text: as §1, §2, §3, §4, §5

Compound | EC50 (CRF2R) | Emax (CRF2R) | EC50 (CRF1R) | Emax (CRF1R)
CC[C@H](C)[C@H](NC(=O)[C@H](CCCNC(=N)N)NC(=O)[C@H](C)NC(=O)[C@H](CC(N)=O)NC(=O)[C@H](CCC(N)=O)NC(=O)[C@H](CCC(=O)O)NC(=O)[C@H](C)NC(=O)[C@H](CCCNC(=N)N)NC(=O)[C@H](CCC(=O)O)NC(=O)[C@H](CCCNC(=N)N)NC(=O)[C@H](CCC(N)=O)NC(=O)[C@H](CO)NC(=O)[C@H](CCC(N)=O)NC(=O)[C@@H](NC(=O)[C@H](CCCCN)NC(=O)[C@H](CCC(=O)O)NC(=O)[C@H](CC(C)C)NC(=O)[C@H](CCC(=O)O)NC(=O)[C@H](CC(C)C)NC(=O)[C@H](CC(C)C)NC(=O)[C@@H](NC(=O)[C@H](CCCNC(=N)N)NC(=O)[C@H](CC(C)C)NC(=O)[C@H](CC(C)C)NC(=O)[C@H](CC(C)C)NC(=O)[C@H](CC(C)C)NC(=O)[C@@H]1CCCN1C(=O)[C@H](CC(C)C)NC(=O)[C@H](CC(=O)O)NC(=O)[C@@H](NC(=O)[C@H](CO)NC(=O)[C@H](CC(C)C)NC(=O)[C@H](CO)NC(=O)[C@@H]1CCCN1)[C@@H](C)CC)[C@@H](C)O)[C@@H](C)O)C(=O)N[C@@H](Cc1ccccc1)C(=O)N[C@@H](C)C(=O)N[C@@H](CCCNC(=N)N)C(=O)N[C@H](C(N)=O)C(C)C [compound 333] (H-PSLSIDLPLLLLRTLLELEKTQSQRERAEQNARIFARV-NH2; N-terminus assumed) | 9.85 nM | 96.9% | ≥ 1000 nM | 43.8%
SQEPPISLDLTFHLLREVLEQARARAAREQATTNARILARV-NH2 [compound 157] | – | 60.6% | – | 91%
CC[C@H](C)[C@H](N)C(=O)N[C@H](C(=O)N[C@@H](CC(C)C)C(=O)N[C@@H](CO)C(=O)N[C@@H](CC(C)C)C(=O)N[C@@H](CC(=O)O)C(=O)N[C@H](C(=O)N1CCC[C@H]1C(=O)N[C@H](C(=O)NCC(=O)N[C@@H](CC(C)C)C(=O)N[C@@H](CC(C)C)C(=O)N[C@@H](CCC(N)=O)C(=O)N[C@H](C(=O)N[C@@H](CC(C)C)C(=O)N[C@@H](CC(C)C)C(=O)N[C@@H](CCC(=O)O)C(=O)N[C@@H](CCC(N)=O)C(=O)N[C@@H](CCC(=O)O)C(=O)N[C@@H](CCCCN)C(=O)N[C@@H](CCC(=O)O)C(=O)N[C@@H](CCCCN)C(=O)N[C@@H](CCCCN)C(=O)N[C@@H](CCCNC(=N)N)C(=O)N[C@@H](CCCCN)C(=O)N[C@@H](CCC(=O)O)C(=O)N[C@H](C(=O)N[C@@H](CC(N)=O)C(=O)N[C@@H](C)C(=O)N[C@@H](CCCNC(=N)N)C(=O)N[C@H](C(=O)N[C@@H](CC(C)C)C(=O)N[C@@H](C)C(=O)N[C@@H](CCCNC(=N)N)C(=O)N[C@H](C(N)=O)C(C)C)[C@@H](C)CC)[C@@H](C)O)[C@@H](C)CC)[C@@H](C)CC)C(C)C)C(C)C [compound 132] (H-IVLSLDVPIGLLQILLEQEKEKKRKETNARILARV-NH2; N-terminus assumed) | 7.53 nM | 88% | > 100 nM | 8%
NDDPPISIDLPYYLLRNMIEMARIENEREQAGLNAKYLAEV-NH2 [compound 267] | – | 44.2% | – | 22.8%
CC[C@H](C)[C@H](NC(=O)[C@H](C)NC(=O)[C@H](CC(N)=O)NC(=O)[C@H](CCC(N)=O)NC(=O)[C@H](CCC(=O)O)NC(=O)[C@H](C)NC(=O)[C@H](CCCNC(=N)N)NC(=O)[C@H](CCC(=O)O)NC(=O)[C@H](CCCNC(=N)N)NC(=O)[C@H](CCC(N)=O)NC(=O)[C@H](CO)NC(=O)[C@H](CCC(N)=O)NC(=O)[C@@H](NC(=O)[C@H](CCCNC(=N)N)NC(=O)[C@H](C)NC(=O)[C@H](CC(C)C)NC(=O)[C@H](CCC(=O)O)NC(=O)[C@H](CC(C)C)NC(=O)[C@H](CC(C)C)NC(=O)[C@@H](NC(=O)[C@H](CCCNC(=N)N)NC(=O)[C@H](CC(C)C)NC(=O)[C@H](CC(C)C)NC(=O)[C@H](Cc1ccc(O)cc1)NC(=O)[C@H](CCC(N)=O)NC(=O)[C@@H]1CCCN1C(=O)[C@H](CC(C)C)NC(=O)[C@H](CC(=O)O)NC(=O)[C@@H](NC(=O)[C@H](CO)NC(=O)[C@H](CC(C)C)NC(=O)[C@H](CO)NC(=O)[C@@H]1CCCN1C(=O)[C@H](CC(N)=O)NC(=O)[C@@H](N)CC(=O)O)[C@@H](C)CC)[C@@H](C)O)[C@@H](C)O)C(=O)N[C@H](C(=O)N[C@@H](Cc1ccccc1)C(=O)N[C@@H](C)C(=O)N[C@@H](CO)C(=O)N[C@H](C(N)=O)C(C)C)[C@@H](C)CC [compound 339] (H-DNPSLSIDLPQYLLRTLLELARTQSQRERAEQNAIIFASV-NH2) | – | 47.9% | – | 13.2%
SQEPPISLDLTIGLLREVLEMTKADQLAQQAHSNRKLLDIA-NH2 [compound 86] | – | 8.1% | – | 4.6%
CC[C@H](C)[C@H](N)C(=O)N[C@H](C(=O)N[C@@H](CC(C)C)C(=O)N[C@@H](CO)C(=O)N[C@@H](CC(C)C)C(=O)N[C@@H](CC(=O)O)C(=O)N[C@H](C(=O)N1CCC[C@H]1C(=O)N[C@H](C(=O)NCC(=O)N[C@@H](CC(C)C)C(=O)N[C@@H](CC(C)C)C(=O)N[C@@H](CCC(N)=O)C(=O)N[C@H](C(=O)N[C@@H](CC(C)C)C(=O)N[C@@H](CC(C)C)C(=O)N[C@@H](CCC(=O)O)C(=O)N[C@@H](CCC(N)=O)C(=O)N[C@@H](CCC(=O)O)C(=O)N[C@@H](CCCNC(=N)N)C(=O)N[C@@H](C)C(=O)N[C@@H](CCCNC(=N)N)C(=O)N[C@@H](C)C(=O)N[C@@H](C)C(=O)N[C@@H](CCCNC(=N)N)C(=O)N[C@@H](CCC(=O)O)C(=O)N[C@@H](CCC(N)=O)C(=O)N[C@@H](C)C(=O)N[C@H](C(=O)N[C@H](C(=O)N[C@@H](CC(N)=O)C(=O)N[C@@H](C)C(=O)N[C@@H](CCCNC(=N)N)C(=O)N[C@H](C(=O)N[C@@H](CC(C)C)C(=O)N[C@@H](C)C(=O)N[C@@H](CCCNC(=N)N)C(=O)N[C@H](C(N)=O)C(C)C)[C@@H](C)CC)[C@@H](C)O)[C@@H](C)O)[C@@H](C)CC)[C@@H](C)CC)C(C)C)C(C)C [compound 119] (H-IVLSLDVPIGLLQILLEQERARAAREQATTNARILARV-NH2; N-terminus assumed) | 3.57 nM | 95% | > 100 nM | 3%
NDDPPISIDLPFHLLRNMIEMARIENEREQAGLNAKYLAEV-NH2 [compound 262] | – | 92.2% | – | 100%
CC[C@H](C)[C@H](N)C(=O)N[C@H](C(=O)N[C@@H](CC(C)C)C(=O)N[C@@H](CO)C(=O)N[C@@H](CC(C)C)C(=O)N[C@@H](CC(=O)O)C(=O)N[C@H](C(=O)N1CCC[C@H]1C(=O)N[C@H](C(=O)NCC(=O)N[C@@H](CC(C)C)C(=O)N[C@@H](CC(C)C)C(=O)N[C@@H](CCC(N)=O)C(=O)N[C@H](C(=O)N[C@@H](CC(C)C)C(=O)N[C@@H](CC(C)C)C(=O)N[C@@H](CCC(=O)O)C(=O)N[C@@H](CCC(N)=O)C(=O)N[C@H](C(=O)N[C@@H](CCCCN)C(=O)N[C@@H](C)C(=O)N[C@@H](CC(=O)O)C(=O)N[C@@H](C)C(=O)N[C@@H](C)C(=O)N[C@@H](CCCNC(=N)N)C(=O)N[C@@H](CCC(=O)O)C(=O)N[C@@H](CCC(N)=O)C(=O)N[C@@H](C)C(=O)N[C@H](C(=O)N[C@H](C(=O)N[C@@H](CC(N)=O)C(=O)N[C@@H](C)C(=O)N[C@@H](CCCNC(=N)N)C(=O)N[C@H](C(=O)N[C@@H](CC(C)C)C(=O)N[C@@H](C)C(=O)N[C@@H](CCCNC(=N)N)C(=O)N[C@H](C(N)=O)C(C)C)[C@@H](C)CC)[C@@H](C)O)[C@@H](C)O)[C@@H](C)O)[C@@H](C)CC)[C@@H](C)CC)C(C)C)C(C)C [compound 108] (H-IVLSLDVPIGLLQILLEQTKADAAREQATTNARILARV-NH2; N-terminus assumed) | – | 97% | – | 3%
